# From PMC4297543 (Bioorganic & medicinal chemistry letters, 2014)
# Biological target: recombinant β-secretase (Homo sapiens, UniProt P56817)
# Assay: β-secretase
# Assay type: biochemical
# Chain of recombinant β-secretase (P56817 46-501): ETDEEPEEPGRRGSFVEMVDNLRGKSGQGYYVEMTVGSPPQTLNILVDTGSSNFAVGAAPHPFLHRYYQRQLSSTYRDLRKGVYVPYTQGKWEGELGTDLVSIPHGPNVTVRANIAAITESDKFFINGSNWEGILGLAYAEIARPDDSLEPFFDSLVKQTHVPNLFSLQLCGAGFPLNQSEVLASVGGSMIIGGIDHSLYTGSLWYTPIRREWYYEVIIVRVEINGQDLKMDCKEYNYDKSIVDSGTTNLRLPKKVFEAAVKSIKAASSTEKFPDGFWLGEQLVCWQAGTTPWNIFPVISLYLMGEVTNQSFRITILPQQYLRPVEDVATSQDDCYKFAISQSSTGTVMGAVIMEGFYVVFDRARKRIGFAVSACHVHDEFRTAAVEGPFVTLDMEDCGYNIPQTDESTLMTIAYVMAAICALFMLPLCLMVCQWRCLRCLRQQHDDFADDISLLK
Structure (SMILES),drop in potency with respect to 3a (ratio of BACE1 Ki to that of 3a),improvement over inhibitor 4a (ratio of BACE1 potency to that of 4a)
Cc1cc(C)n(C[C@@H](C)C(=O)N[C@@H](CNC(=O)OC(C)(C)C)C(=O)N[C@@H](CC(C)C)[C@@H](O)C[C@@H](C)C(=O)N[C@H](C(=O)NCC(C)C)C(C)C)n1 [Inhibitor 3b],~40 fold,
Cc1csc(C[C@H](C)C(=O)N[C@@H](CNC(=O)OC(C)(C)C)C(=O)N[C@@H](CC(C)C)[C@@H](O)C[C@@H](C)C(=O)N[C@H](C(=O)NCC(C)C)C(C)C)n1 [Inhibitor 4c],,over 120 fold
